Reference: ChEMBL document CHEMBL4130389, “An integrative study to identify novel scaffolds for sphingosine kinase 1 inhibitors” (Eur J Med Chem, 2017)

target: Sphingosine kinase 1 (Homo sapiens, UniProt Q9NYA1); assay: Inhibition of human N-terminal MGHHHHHHHHHHSSG-tagged SphK1 (2 to 384 residues) expressed in Escherichia coli Rosetta-2 by fluorescence assay
Sequence (Q9NYA1 whole entry, the tested form may be a part): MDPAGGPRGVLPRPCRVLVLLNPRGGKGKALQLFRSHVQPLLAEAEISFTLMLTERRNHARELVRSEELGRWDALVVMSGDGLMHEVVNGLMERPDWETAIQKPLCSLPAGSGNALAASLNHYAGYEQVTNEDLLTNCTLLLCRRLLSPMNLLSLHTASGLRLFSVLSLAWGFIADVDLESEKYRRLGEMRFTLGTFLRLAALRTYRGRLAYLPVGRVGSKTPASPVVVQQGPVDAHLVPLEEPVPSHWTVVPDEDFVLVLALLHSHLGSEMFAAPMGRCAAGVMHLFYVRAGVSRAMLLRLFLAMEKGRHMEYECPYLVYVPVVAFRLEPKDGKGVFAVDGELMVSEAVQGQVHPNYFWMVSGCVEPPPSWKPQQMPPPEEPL

`CCCCOC(=O)Nc1ccc(C(O)CN2CCN(c3ccncc3)CC2)cc1` (stereo not drawn) and `CCCCOC(=O)Nc1cccc(C(O)CN2CCN(c3ccncc3)CC2)c1` (stereo not drawn) are within 1.5-fold of each other in IC50: 55 µM for the first, 60 µM for the second.

`CC1Cc2c(N/N=C/c3ccc(Cl)cc3)ncnc2N(C)c2ccccc21` (stereo not drawn) showed an IC50 of 12 µM.
